# Legend:
# Assay type in all cases: in vivo
# Rice (Oryza sativa) = assay: Test Example 3 paddy field treatment, crop phytotoxicity; settings: paddy field treatment, transplanted rice Koshihikari, wettable powder, active ingredient 1 kg per hectare, 21st day after the dropping, index 0-5
# How it was run: (§1)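 Scoring used a 0–5 scale of herbicidal effect or phytotoxicity, from <10% to ≥90%, taken 21 days after treatment. Treatment was 1 kg a.i./ha as diluted wettable powder dripped onto 4 cm-deep flooded pots sown with the weeds, 10 days after transplanting two-leaf Koshihikari rice.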
# Setaria viridis [1] = assay: Test Example 2 upland soil treatment; settings: Table 5, upland soil treatment, index 0-5
# How it was run: (§2)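 Seeds are sown into upland soil and covered by roughly 1 cm of soil, then the compound, formulated as a wettable powder and diluted with water, is applied uniformly to the soil surface the following day at 1 kg active ingredient per hectare. Herbicidal effect or phytotoxicity is graded 0 to 5 after 21 days.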
# Digitaria adscendens [2] = assay: Test Example 2 upland soil treatment; settings: Table 5, upland soil treatment, index 0-5
# How it was run: as §2
# Chenopodium album [3] = assay: Test Example 2 upland soil treatment; settings: Table 5, upland soil treatment, index 0-5
# How it was run: as §2
# Stellaria media [4] = assay: Test Example 2 upland soil treatment; settings: Table 5, upland soil treatment, index 0-5
# How it was run: as §2
# soybean (Glycine max) [5] = assay: Test Example 1 upland field foliage treatment, crop phytotoxicity; settings: Table 4, upland field foliage treatment, index 0-5
# How it was run: (§3)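 Post-emergence foliar spray, 1 kg a.i./ha, wettable powder diluted in water, applied 14 d after sowing in upland soil. Rating 21 d post-application, 0–5 scale: 5 ≥90%, 4 70–<90%, 3 50–<70%, 2 30–<50%, 1 10–<30%, 0 <10% effect or injury.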
# [6] = tested on: wheat (Triticum aestivum); assay: as above; settings: Table 4, upland field foliage treatment, index 0-5
# How it was run: as §3
# soybean (Glycine max) [7] = assay: Test Example 2 upland soil treatment, crop phytotoxicity; settings: Table 5, upland soil treatment, index 0-5
# How it was run: as §2
# [8] = tested on: wheat (Triticum aestivum); assay: as above; settings: Table 5, upland soil treatment, index 0-5
# How it was run: as §2
# Setaria viridis [9] = assay: Test Example 1 upland field foliage treatment; settings: Table 4, upland field foliage treatment, index 0-5
# How it was run: as §3
# Digitaria adscendens [10] = assay: Test Example 1 upland field foliage treatment; settings: Table 4, upland field foliage treatment, index 0-5
# How it was run: as §3
# Chenopodium album [11] = assay: Test Example 1 upland field foliage treatment; settings: Table 4, upland field foliage treatment, index 0-5
# How it was run: as §3
# Stellaria media [12] = assay: Test Example 1 upland field foliage treatment; settings: Table 4, upland field foliage treatment, index 0-5
# How it was run: as §3
# Scirpus juncoides = assay: Test Example 3 paddy field treatment; settings: paddy field treatment, wettable powder, active ingredient 1 kg per hectare, 21st day after the dropping, index 0-5
# How it was run: as §1
# Echinochloa crusgalli = assay: Test Example 3 paddy field treatment; settings: paddy field treatment, wettable powder, active ingredient 1 kg per hectare, 21st day after the dropping, index 0-5
# How it was run: as §1
# Monochoria vaginalis = assay: Test Example 3 paddy field treatment; settings: paddy field treatment, wettable powder, active ingredient 1 kg per hectare, 21st day after the dropping, index 0-5
# How it was run: as §1
# Ammannia multiflora = assay: Test Example 3 paddy field treatment; settings: paddy field treatment, wettable powder, active ingredient 1 kg per hectare, 21st day after the dropping, index 0-5
# How it was run: as §1
SMILES,Herbicidal activity OS (phytotoxicity to rice) (Rice (Oryza sativa)),Herbicidal activity SV: Setaria viridis (Setaria viridis [1]),Herbicidal activity DA: Digitaria adscendens (Digitaria adscendens [2]),Herbicidal activity CA: Chenopodium album (Chenopodium album [3]),Herbicidal activity SM: Stellaria media (Stellaria media [4]),Herbicidal activity (phytotoxicity) GM: Soybean (Glycine max) (soybean (Glycine max) [5]),Herbicidal activity (phytotoxicity) TA: Wheat (Triticum aestivum) [6],Herbicidal activity (phytotoxicity) GM: Soybean (Glycine max) (soybean (Glycine max) [7]),Herbicidal activity (phytotoxicity) TA: Wheat (Triticum aestivum) [8],Herbicidal activity SV: Setaria viridis (Setaria viridis [9]),Herbicidal activity DA: Digitaria adscendens (Digitaria adscendens [10]),Herbicidal activity CA: Chenopodium album (Chenopodium album [11]),Herbicidal activity SM: Stellaria media (Stellaria media [12]),Herbicidal activity SJ (Scirpus juncoides),Herbicidal activity EC (Echinochloa crusgalli),Herbicidal activity MV (Monochoria vaginalis),Herbicidal activity AM (Ammannia multiflora)
"CNC(=O)C(Cn1cc(C)c(-c2ccc(OC)cc2)n1)=NOC [Compound 41, 2-methoxyimino-3-((4′-methoxyphenyl)-4-methyl-pyrazole)-1-yl-propanoic acid-N-methylamide]","0 (herbicidal effect of not less than 0% and less than 10%, or phytotoxicity of 0% or more and less than 10%)","5 (herbicidal effect of not less than 90%, or phytotoxicity of 90% or more)","5 (herbicidal effect of not less than 90%, or phytotoxicity of 90% or more)","5 (herbicidal effect of not less than 90%, or phytotoxicity of 90% or more)","5 (herbicidal effect of not less than 90%, or phytotoxicity of 90% or more)","1 (herbicidal effect of not less than 10% and less than 30%, or phytotoxicity of 10% or more and less than 30%)","0 (herbicidal effect of not less than 0% and less than 10%, or phytotoxicity of 0% or more and less than 10%)","1 (herbicidal effect of not less than 10% and less than 30%, or phytotoxicity of 10% or more and less than 30%)","0 (herbicidal effect of not less than 0% and less than 10%, or phytotoxicity of 0% or more and less than 10%)","5 (herbicidal effect of not less than 90%, or phytotoxicity of 90% or more)","5 (herbicidal effect of not less than 90%, or phytotoxicity of 90% or more)","5 (herbicidal effect of not less than 90%, or phytotoxicity of 90% or more)","5 (herbicidal effect of not less than 90%, or phytotoxicity of 90% or more)","5 (herbicidal effect of not less than 90%, or phytotoxicity of 90% or more)","5 (herbicidal effect of not less than 90%, or phytotoxicity of 90% or more)","5 (herbicidal effect of not less than 90%, or phytotoxicity of 90% or more)","5 (herbicidal effect of not less than 90%, or phytotoxicity of 90% or more)"
CNC(=O)C(Cn1cc(C)c(-c2cccc(F)c2)n1)=NOC [Compound 43],"1 (herbicidal effect of not less than 10% and less than 30%, or phytotoxicity of 10% or more and less than 30%)","5 (herbicidal effect of not less than 90%, or phytotoxicity of 90% or more)","5 (herbicidal effect of not less than 90%, or phytotoxicity of 90% or more)","5 (herbicidal effect of not less than 90%, or phytotoxicity of 90% or more)","5 (herbicidal effect of not less than 90%, or phytotoxicity of 90% or more)","0 (herbicidal effect of not less than 0% and less than 10%, or phytotoxicity of 0% or more and less than 10%)","0 (herbicidal effect of not less than 0% and less than 10%, or phytotoxicity of 0% or more and less than 10%)","1 (herbicidal effect of not less than 10% and less than 30%, or phytotoxicity of 10% or more and less than 30%)","0 (herbicidal effect of not less than 0% and less than 10%, or phytotoxicity of 0% or more and less than 10%)","5 (herbicidal effect of not less than 90%, or phytotoxicity of 90% or more)","5 (herbicidal effect of not less than 90%, or phytotoxicity of 90% or more)","5 (herbicidal effect of not less than 90%, or phytotoxicity of 90% or more)","5 (herbicidal effect of not less than 90%, or phytotoxicity of 90% or more)","5 (herbicidal effect of not less than 90%, or phytotoxicity of 90% or more)","5 (herbicidal effect of not less than 90%, or phytotoxicity of 90% or more)","5 (herbicidal effect of not less than 90%, or phytotoxicity of 90% or more)","5 (herbicidal effect of not less than 90%, or phytotoxicity of 90% or more)"
CNC(=O)C(Cn1cc(C)c(-c2ccc(F)cc2)n1)=NOC [Compound 44],"1 (herbicidal effect of not less than 10% and less than 30%, or phytotoxicity of 10% or more and less than 30%)","5 (herbicidal effect of not less than 90%, or phytotoxicity of 90% or more)","5 (herbicidal effect of not less than 90%, or phytotoxicity of 90% or more)","5 (herbicidal effect of not less than 90%, or phytotoxicity of 90% or more)","5 (herbicidal effect of not less than 90%, or phytotoxicity of 90% or more)","0 (herbicidal effect of not less than 0% and less than 10%, or phytotoxicity of 0% or more and less than 10%)","0 (herbicidal effect of not less than 0% and less than 10%, or phytotoxicity of 0% or more and less than 10%)","0 (herbicidal effect of not less than 0% and less than 10%, or phytotoxicity of 0% or more and less than 10%)","0 (herbicidal effect of not less than 0% and less than 10%, or phytotoxicity of 0% or more and less than 10%)","5 (herbicidal effect of not less than 90%, or phytotoxicity of 90% or more)","5 (herbicidal effect of not less than 90%, or phytotoxicity of 90% or more)","5 (herbicidal effect of not less than 90%, or phytotoxicity of 90% or more)","5 (herbicidal effect of not less than 90%, or phytotoxicity of 90% or more)","5 (herbicidal effect of not less than 90%, or phytotoxicity of 90% or more)","5 (herbicidal effect of not less than 90%, or phytotoxicity of 90% or more)","5 (herbicidal effect of not less than 90%, or phytotoxicity of 90% or more)","5 (herbicidal effect of not less than 90%, or phytotoxicity of 90% or more)"
CNC(=O)C(Cn1cc(C)c(-c2ccc(Cl)cc2)n1)=NOC [Compound 47],"0 (herbicidal effect of not less than 0% and less than 10%, or phytotoxicity of 0% or more and less than 10%)","5 (herbicidal effect of not less than 90%, or phytotoxicity of 90% or more)","5 (herbicidal effect of not less than 90%, or phytotoxicity of 90% or more)","5 (herbicidal effect of not less than 90%, or phytotoxicity of 90% or more)","5 (herbicidal effect of not less than 90%, or phytotoxicity of 90% or more)","0 (herbicidal effect of not less than 0% and less than 10%, or phytotoxicity of 0% or more and less than 10%)","0 (herbicidal effect of not less than 0% and less than 10%, or phytotoxicity of 0% or more and less than 10%)","0 (herbicidal effect of not less than 0% and less than 10%, or phytotoxicity of 0% or more and less than 10%)","0 (herbicidal effect of not less than 0% and less than 10%, or phytotoxicity of 0% or more and less than 10%)","5 (herbicidal effect of not less than 90%, or phytotoxicity of 90% or more)","5 (herbicidal effect of not less than 90%, or phytotoxicity of 90% or more)","5 (herbicidal effect of not less than 90%, or phytotoxicity of 90% or more)","5 (herbicidal effect of not less than 90%, or phytotoxicity of 90% or more)","5 (herbicidal effect of not less than 90%, or phytotoxicity of 90% or more)","5 (herbicidal effect of not less than 90%, or phytotoxicity of 90% or more)","5 (herbicidal effect of not less than 90%, or phytotoxicity of 90% or more)","5 (herbicidal effect of not less than 90%, or phytotoxicity of 90% or more)"
